Experimental data as given in paper PMC7939385, “Disease-associated mutations in inositol 1,4,5-trisphosphate receptor subunits impair channel function” (The Journal of Biological Chemistry, 2021).

Tests used:
[1] = molecular target: T1, WT rIP3R1 (Rattus norvegicus, UniProt C7E1V2, N602D); assay: competitive [3H]IP3 radioligand binding on immunoprecipitated receptor
T1 construct: gene Itpr1; homotetramer, ~300 kDa subunit; Methods give NM_001270596, footnote NM_001007235

[2] = molecular target: T2, WT rIP3R1 (Rattus norvegicus, UniProt C7E1V2); assay: as above; details: read-out: apparent EC50
T2 construct: gene Itpr1; homotetramer, ~300 kDa subunit; Methods give NM_001270596, footnote NM_001007235
Text: competitive [3H]IP3 radioligand binding on immunoprecipitated receptor on WT rIP3R1 | the apparent EC50 for binding was not markedly altered under these conditions

[3] = molecular target: T3, WT mIP3R2 (Mus musculus, UniProt Q9Z329); assay: [3H]IP3 binding on immunoprecipitated receptor; details: 2.5 nM [3H]IP3 with 50 uM unlabelled IP3 for nonspecific binding; pH 8, 4 °C, 1 h; labelled compound
T3 construct: gene Itpr2; homotetramer

T1 sequence (C7E1V2 1-2748 N602D): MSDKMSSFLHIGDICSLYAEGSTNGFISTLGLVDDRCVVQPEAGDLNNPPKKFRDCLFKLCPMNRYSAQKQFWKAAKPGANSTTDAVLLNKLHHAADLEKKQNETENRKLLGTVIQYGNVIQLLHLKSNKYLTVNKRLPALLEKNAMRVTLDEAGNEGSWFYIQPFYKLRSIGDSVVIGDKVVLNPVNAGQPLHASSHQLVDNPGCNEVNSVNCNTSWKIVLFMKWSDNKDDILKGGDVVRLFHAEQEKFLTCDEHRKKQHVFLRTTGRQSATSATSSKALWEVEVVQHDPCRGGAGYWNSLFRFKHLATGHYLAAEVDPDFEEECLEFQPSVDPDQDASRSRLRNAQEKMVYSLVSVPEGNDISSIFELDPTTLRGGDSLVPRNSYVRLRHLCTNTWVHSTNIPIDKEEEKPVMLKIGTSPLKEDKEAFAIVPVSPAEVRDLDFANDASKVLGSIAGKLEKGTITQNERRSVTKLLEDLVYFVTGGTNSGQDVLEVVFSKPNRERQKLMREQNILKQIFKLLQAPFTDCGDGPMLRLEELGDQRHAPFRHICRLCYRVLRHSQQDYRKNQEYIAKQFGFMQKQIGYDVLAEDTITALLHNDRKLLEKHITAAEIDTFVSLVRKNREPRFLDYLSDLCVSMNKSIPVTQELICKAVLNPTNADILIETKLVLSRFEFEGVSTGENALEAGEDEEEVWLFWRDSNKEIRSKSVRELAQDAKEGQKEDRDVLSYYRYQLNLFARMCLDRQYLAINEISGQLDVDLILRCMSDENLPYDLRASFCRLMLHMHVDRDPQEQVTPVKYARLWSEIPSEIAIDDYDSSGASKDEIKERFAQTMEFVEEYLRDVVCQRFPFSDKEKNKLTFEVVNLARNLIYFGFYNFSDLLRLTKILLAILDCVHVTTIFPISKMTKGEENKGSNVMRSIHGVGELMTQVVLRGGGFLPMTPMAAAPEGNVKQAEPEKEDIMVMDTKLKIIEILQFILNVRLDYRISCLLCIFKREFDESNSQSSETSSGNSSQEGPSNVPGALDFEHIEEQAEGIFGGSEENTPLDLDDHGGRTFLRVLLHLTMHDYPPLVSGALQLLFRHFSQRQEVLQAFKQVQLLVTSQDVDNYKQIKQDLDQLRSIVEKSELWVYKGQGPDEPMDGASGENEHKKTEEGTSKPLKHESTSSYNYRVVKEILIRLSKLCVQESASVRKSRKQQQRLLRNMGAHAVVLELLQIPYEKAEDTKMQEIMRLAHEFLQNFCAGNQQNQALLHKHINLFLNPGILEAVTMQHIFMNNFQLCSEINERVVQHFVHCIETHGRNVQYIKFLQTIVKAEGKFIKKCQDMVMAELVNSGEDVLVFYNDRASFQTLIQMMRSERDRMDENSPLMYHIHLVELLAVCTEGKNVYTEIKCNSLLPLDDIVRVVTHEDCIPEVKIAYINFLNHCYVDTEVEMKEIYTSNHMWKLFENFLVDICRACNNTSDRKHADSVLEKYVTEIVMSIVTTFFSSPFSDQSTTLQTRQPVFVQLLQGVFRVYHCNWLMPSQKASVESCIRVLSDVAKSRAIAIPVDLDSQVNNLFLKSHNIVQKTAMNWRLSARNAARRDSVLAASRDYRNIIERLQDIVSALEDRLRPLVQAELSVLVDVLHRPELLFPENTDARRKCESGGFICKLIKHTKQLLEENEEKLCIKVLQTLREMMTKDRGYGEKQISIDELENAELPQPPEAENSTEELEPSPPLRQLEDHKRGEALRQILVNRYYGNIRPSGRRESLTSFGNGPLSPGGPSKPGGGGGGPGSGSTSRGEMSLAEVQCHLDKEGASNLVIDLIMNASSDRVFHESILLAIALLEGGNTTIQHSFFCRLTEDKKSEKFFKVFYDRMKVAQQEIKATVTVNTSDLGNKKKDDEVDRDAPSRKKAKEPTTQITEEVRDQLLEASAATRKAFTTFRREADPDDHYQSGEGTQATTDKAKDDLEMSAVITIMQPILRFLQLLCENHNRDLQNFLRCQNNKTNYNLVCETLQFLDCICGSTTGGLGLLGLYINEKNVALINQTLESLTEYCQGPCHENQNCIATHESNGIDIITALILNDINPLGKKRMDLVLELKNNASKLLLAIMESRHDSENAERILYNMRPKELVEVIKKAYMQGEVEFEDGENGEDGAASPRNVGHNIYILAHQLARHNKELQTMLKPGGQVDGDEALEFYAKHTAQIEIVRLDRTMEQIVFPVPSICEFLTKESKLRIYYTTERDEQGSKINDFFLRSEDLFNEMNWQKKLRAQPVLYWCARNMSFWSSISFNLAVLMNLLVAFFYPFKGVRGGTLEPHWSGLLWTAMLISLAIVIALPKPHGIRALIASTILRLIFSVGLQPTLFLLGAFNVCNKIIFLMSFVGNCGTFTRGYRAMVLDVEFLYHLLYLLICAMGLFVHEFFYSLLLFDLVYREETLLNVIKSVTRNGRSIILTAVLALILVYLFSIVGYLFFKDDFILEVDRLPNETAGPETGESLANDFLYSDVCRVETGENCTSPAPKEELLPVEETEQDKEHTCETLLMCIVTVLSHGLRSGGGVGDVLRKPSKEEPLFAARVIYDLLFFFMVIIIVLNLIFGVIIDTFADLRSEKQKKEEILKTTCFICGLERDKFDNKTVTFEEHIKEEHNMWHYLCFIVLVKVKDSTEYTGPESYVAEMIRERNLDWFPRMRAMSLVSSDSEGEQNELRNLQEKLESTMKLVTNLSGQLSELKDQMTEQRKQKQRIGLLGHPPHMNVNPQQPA

O=P(O)(O)O[C@@H]1[C@H](O)[C@H](O)[C@@H](OP(=O)(O)O)[C@H](OP(=O)(O)O)[C@H]1O [IP3]
EC50 [1]: 70.2 ± 1.6 nM | EC50 [2]: 45.7 ± 5.3 nM | [3H]IP3 binding on immunoprecipitated receptor [3]: IP3 binding to mIP3R2^GS was comparable with WT mIP3R2
